The record followed here is patent US10189841B2, “Purinones as ubiquitin-specific protease 1 inhibitors” (Forma Therapeutics, Inc., priority 2015, dated 2019).

In the test the target is USP1 (construct USP1 (I-785, GG670, 671AA)/UAF1 (I-677)-Flag) (Homo sapiens (Human), UniProt O94782, G670A/G671A). The test is described as follows: Ubiquitin-Rhodamine 110 assay for USP1 activity. It is filed as biochemical. The settings on record: USP1/UAF1 25 pM, Ub-Rh110 25 nM, 30 min preincubation. The method in brief:
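Ub-Rh110 (25 nM, ≪Km) cleavage read at ex 485/em 535 in Tris pH 8.0, CaCl2, GSH, Prionex, Triton X-100. The screen used 10 µM compound, 100 pM USP1/UAF1 and 45 min at RT.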

Sequence of USP1 (construct USP1 (I-785, GG670, 671AA)/UAF1 (I-677)-Flag) (O94782 whole entry G670A/G671A): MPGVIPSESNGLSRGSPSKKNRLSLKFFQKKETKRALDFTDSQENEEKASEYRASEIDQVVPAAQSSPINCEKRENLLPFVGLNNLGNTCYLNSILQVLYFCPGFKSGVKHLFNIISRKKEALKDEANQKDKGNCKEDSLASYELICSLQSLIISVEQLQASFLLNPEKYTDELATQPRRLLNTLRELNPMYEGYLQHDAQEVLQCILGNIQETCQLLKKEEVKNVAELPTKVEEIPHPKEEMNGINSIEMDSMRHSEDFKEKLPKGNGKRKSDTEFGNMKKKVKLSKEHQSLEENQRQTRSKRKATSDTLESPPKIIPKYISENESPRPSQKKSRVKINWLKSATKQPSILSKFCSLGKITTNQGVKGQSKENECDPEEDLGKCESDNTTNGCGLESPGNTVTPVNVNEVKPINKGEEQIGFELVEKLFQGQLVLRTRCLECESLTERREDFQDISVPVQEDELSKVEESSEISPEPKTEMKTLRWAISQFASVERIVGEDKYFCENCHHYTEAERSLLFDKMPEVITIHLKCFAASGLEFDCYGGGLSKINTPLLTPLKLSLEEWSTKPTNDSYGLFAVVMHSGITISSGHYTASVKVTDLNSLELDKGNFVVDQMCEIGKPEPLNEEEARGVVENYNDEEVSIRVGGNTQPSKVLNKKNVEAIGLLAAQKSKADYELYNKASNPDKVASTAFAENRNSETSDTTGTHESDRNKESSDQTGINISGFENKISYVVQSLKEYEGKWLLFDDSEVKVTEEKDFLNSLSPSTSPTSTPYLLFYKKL
Sequence of USP1 (construct USP1 (I-785, GG670, 671AA)/UAF1 (I-677)-Flag) (Q8TAF3 whole entry partner): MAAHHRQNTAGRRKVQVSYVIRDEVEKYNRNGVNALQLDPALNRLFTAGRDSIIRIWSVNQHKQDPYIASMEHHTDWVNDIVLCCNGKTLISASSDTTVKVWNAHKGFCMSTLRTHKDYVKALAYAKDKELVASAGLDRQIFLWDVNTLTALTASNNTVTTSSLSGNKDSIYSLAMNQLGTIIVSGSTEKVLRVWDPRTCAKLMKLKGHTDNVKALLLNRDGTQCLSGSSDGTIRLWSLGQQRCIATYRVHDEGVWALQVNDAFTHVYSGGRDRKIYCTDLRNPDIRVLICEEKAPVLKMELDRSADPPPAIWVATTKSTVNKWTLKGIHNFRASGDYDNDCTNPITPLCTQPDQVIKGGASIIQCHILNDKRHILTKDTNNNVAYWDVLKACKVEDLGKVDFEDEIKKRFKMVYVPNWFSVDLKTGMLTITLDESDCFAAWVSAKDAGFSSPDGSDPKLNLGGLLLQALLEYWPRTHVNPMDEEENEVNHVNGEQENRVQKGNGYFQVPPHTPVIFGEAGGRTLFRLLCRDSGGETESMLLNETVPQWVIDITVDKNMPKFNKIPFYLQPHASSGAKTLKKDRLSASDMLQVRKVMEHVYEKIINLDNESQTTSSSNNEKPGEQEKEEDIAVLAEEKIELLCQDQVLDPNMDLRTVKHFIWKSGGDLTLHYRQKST

As for `CC(C)c1ccccc1-c1ncc2[nH]c(=O)n(Cc3ccc(-n4ccc(N5CCN(C)CC5)n4)cc3)c2n1` [Compound I-173, 2-(2-isopropylphenyl)-9-(4-(3-(4-methylpiperazin-1-yl)-1H-pyrazol-1-yl)benzyl)-7,9-dihydro-8H-purin-8-one], the IC50 is under 50 nM.

With `COC[C@@H]1CCCN1C(=O)c1ccc(Cn2c(=O)[nH]c3cnc(-c4ccccc4C(C)C)nc32)cc1` [Compound I-396, (S)-2-(2-isopropylphenyl)-9-(4-(2-(methoxymethyl)pyrrolidine-1-carbonyl)benzyl)-7,9-dihydro-8H-purin-8-one], the IC50 is 200 to 2000 nM.

`Cn1cc(C(F)(F)F)nc1-c1ccc(Cn2c(=O)[nH]c3cnc(-c4cccnc4N4CCCCC4)nc32)cc1` [Compound I-326, 9-(4-(1-methyl-4-(trifluoromethyl)-1H-imidazol-2-yl)benzyl)-2-(2-(piperidin-1-yl)pyridin-3-yl)-7,9-dihydro-8H-purin-8-one] gave a 50% inhibitory concentration (IC50) of under 50 nM.

Consider `O=c1[nH]c2cnc(-c3cccnc3OCC(F)(F)F)nc2n1[C@@H]1CC[C@H]1c1ccc(-n2cccn2)cc1` [Compound I-24, 9-((1R,2S)-2-(4-(1H-pyrazol-1-yl)phenyl)cyclobutyl)-2-(2-(2,2,2-trifluoroethoxy)pyridin-3-yl)-7,9-dihydro-8H-purin-8-one], for which the half-inhibitory concentration (IC50) lay within 50 to 200 nM.

`COc1ccnn1-c1ccc(Cn2c(=O)[nH]c3cnc(-c4ccccc4C(C)C)nc32)cc1` [Compound I-206, 2-(2-isopropylphenyl)-9-(4-(5-methoxy-1H-pyrazol-1-yl)benzyl)-7,9-dihydro-8H-purin-8-one]: the 50% inhibitory concentration (IC50) is under 50 nM.

As for `CC(C)c1ccccc1-c1ncc2[nH]c(=O)n([C@H](C)c3ccc(F)cc3)c2n1` [Compound I-178, (R)-9-(1-(4-fluorophenyl)ethyl)-2-(2-isopropylphenyl)-7,9-dihydro-8H-purin-8-one], the IC50 is under 50 nM.

As to `CCC(N)(CC)c1cn(-c2ccc(Cn3c(=O)[nH]c4cnc(-c5ccccc5C(C)C)nc43)cc2)nn1` [Compound I-348, 9-(4-(4-(3-aminopentan-3-yl)-1H-1,2,3-triazol-1-yl)benzyl)-2-(2-isopropylphenyl)-7,9-dihydro-8H-purin-8-one], the IC50 was over 2000 nM.

`CC(C)c1ccccc1-c1ncc2[nH]c(=O)n(Cc3ccc(-n4cncn4)cc3)c2n1` [Compound I-154, 9-(4-(1H-1,2,4-triazol-1-yl)benzyl)-2-(2-isopropylphenyl)-7,9-dihydro-8H-purin-8-one] returned an IC50 of over 2000 nM.

As to `CC(C)c1ccccc1-c1ncc2c(n1)n(Cc1ccc(-c3nc(C(F)(F)F)cn3C3CNC3)cc1)c(=O)n2C` [Compound I-436, 9-(4-(1-(azetidin-3-yl)-4-(trifluoromethyl)-1H-imidazol-2-yl)benzyl)-2-(2-isopropylphenyl)-7-methyl-7,9-dihydro-8H-purin-8-one], the 50% inhibitory concentration (IC50) is under 50 nM.

On to `CC(C)c1c(F)cccc1-c1ncc2[nH]c(=O)n(Cc3ccc(-n4nccn4)cc3)c2n1` [Compound I-166, 9-(4-(2H-1,2,3-triazol-2-yl)benzyl)-2-(3-fluoro-2-isopropylphenyl)-7,9-dihydro-8H-purin-8-one], for which the IC50 is 50 to 200 nM.

`CC(C)c1ncccc1-c1ncc2[nH]c(=O)n(Cc3ccc(-c4nc(C(F)F)cn4C)cc3)c2n1` [Compound I-87, 9-(4-(4-(difluoromethyl)-1-methyl-1H-imidazol-2-yl)benzyl)-2-(2-isopropylpyridin-3-yl)-7,9-dihydro-8H-purin-8-one] returned a half-inhibitory concentration (IC50) of 50 to 200 nM.

`CC(C)c1ccccc1-c1ncc2[nH]c(=O)n(Cc3ccc(N4CCCC4=O)cc3)c2n1` [Compound I-512, 2-(2-Isopropylphenyl)-9-(4-(2-oxopyrrolidin-1-yl)benzyl)-7,9-dihydro-8H-purin-8-one]: the IC50 is 50 to 200 nM.

`CC(C)c1ccccc1-c1ncc2[nH]c(=O)n(Cc3ccc(C(=O)N[C@@H]4CCC[C@@H]4O)cc3)c2n1` [Compound I-387, N-((1R,2S)-2-hydroxycyclopentyl)-4-((2-(2-isopropylphenyl)-8-oxo-7,8-dihydro-9H-purin-9-yl)methyl)benzamide] registered an IC50 of 50 to 200 nM.

Regarding `CC(C)c1ccccc1-c1ncc2[nH]c(=O)n(Cc3ccc(-n4ccc([C@@H]5CCCNC5)n4)cc3)c2n1` [Compound I-224, (R)-2-(2-isopropylphenyl)-9-(4-(3-(piperidin-3-yl)-1H-pyrazol-1-yl)benzyl)-7,9-dihydro-8H-purin-8-one], the concentration for half-maximal inhibition (IC50) lay within 50 to 200 nM.

With `CC(C)c1ccccc1-c1ncc2[nH]c(=O)n(Cc3ccc(-c4nc(C5CCN(C)CC5)cn4C)cc3)c2n1` [Compound I-445, 2-(2-isopropylphenyl)-9-(4-(1-methyl-4-(1-methylpiperidin-4-yl)-1H-imidazol-2-yl)benzyl)-7,9-dihydro-8H-purin-8-one], the IC50 is under 50 nM.

Regarding `COCC1CCCCN1C(=O)c1ccc(Cn2c(=O)[nH]c3cnc(-c4ccccc4C(C)C)nc32)cc1` (stereo not shown) [Compound I-400, 2-(2-isopropylphenyl)-9-(4-(2-(methoxymethyl)piperidine-1-carbonyl)benzyl)-7,9-dihydro-8H-purin-8-one], the 50% inhibitory concentration (IC50) was 50 to 200 nM.

`CC(C)c1ccccc1-c1ncc2[nH]c(=O)n(Cc3ccc(C(=O)N4CCC[C@H]4CO)cc3)c2n1` [Compound I-382, (S)-9-(4-(2-(hydroxymethyl)pyrrolidine-1-carbonyl)benzyl)-2-(2-isopropylphenyl)-7,9-dihydro-8H-purin-8-one] gave an IC50 of 200 to 2000 nM.

In turn, `CC(C)c1ccccc1-c1ncc2[nH]c(=O)n(Cc3ccc(-c4nc(C(F)(F)F)nn4C)cc3)c2n1` [Compound I-209, 2-(2-isopropylphenyl)-9-(4-(1-methyl-3-(trifluoromethyl)-1H-1,2,4-triazol-5-yl)benzyl)-7,9-dihydro-8H-purin-8-one] gave a half-maximal inhibitory concentration (IC50) of under 50 nM.

`CC(C)c1ccccc1-c1ncc2c(n1)n(Cc1ccc(-n3cccn3)cc1)c(=O)n2C` [Compound I-6, 9-(4-(1H-pyrazol-1-yl)benzyl)-2-(2-isopropylphenyl)-7-methyl-7,9-dihydro-8H-purin-8-one] returned a half-inhibitory concentration (IC50) of 50 to 200 nM.

In turn, `CC(C)c1ncccc1-c1ncc2c(n1)n([C@@H](C)c1ccc(-c3nc(C(F)(F)F)cn3C)cc1)c(=O)n2C` [Compound I-116, (S)-2-(2-isopropylpyridin-3-yl)-7-methyl-9-(1-(4-(1-methyl-4-(trifluoromethyl)-1H-imidazol-2-yl)phenyl)ethyl)-7,9-dihydro-8H-purin-8-one] displayed a 50% inhibitory concentration (IC50) of under 50 nM.

Regarding `CC(C)c1ccccc1-c1ncc2[nH]c(=O)n(Cc3ccc(-c4ncc(C5CCN(C)CC5)n4C)cc3)c2n1` [Compound I-446, 2-(2-isopropylphenyl)-9-(4-(1-methyl-5-(1-methylpiperidin-4-yl)-1H-imidazol-2-yl)benzyl)-7,9-dihydro-8H-purin-8-one], the half-inhibitory concentration (IC50) is under 50 nM.

With `CCC(CC)Oc1ncccc1-c1ncc2[nH]c(=O)n(Cc3ccc(-c4nc(C(F)(F)F)cn4C)cc3)c2n1` [Compound I-427, 9-(4-(1-methyl-4-(trifluoromethyl)-1H-imidazol-2-yl)benzyl)-2-(2-(pentan-3-yloxy)pyridin-3-yl)-7,9-dihydro-8H-purin-8-one], the half-inhibitory concentration (IC50) is under 50 nM.

`CC(C)c1ccccc1-c1ncc2c(n1)n(Cc1ccc(-c3cccc4cn[nH]c34)cc1)c(=O)n2C` [Compound I-268, 9-(4-(1H-indazol-7-yl)benzyl)-2-(2-isopropylphenyl)-7-methyl-7,9-dihydro-8H-purin-8-one] had a half-maximal inhibitory concentration (IC50) of 50 to 200 nM.

`CC(C)c1ncccc1-c1ncc2c(n1)n(Cc1ccc(-c3nc(C(F)(F)F)cn3C3CC3)cc1)c(=O)n2C` [Compound I-114, 9-(4-(1-cyclopropyl-4-(trifluoromethyl)-1H-imidazol-2-yl)benzyl)-2-(2-isopropylpyridin-3-yl)-7-methyl-7,9-dihydro-8H-purin-8-one]: the IC50 was under 50 nM.

For the compound `CC(C)c1ccccc1-c1ncc2c(n1)n(Cc1ccc(-c3cn(C)nn3)cc1)c(=O)n2C` [Compound I-287, 2-(2-isopropylphenyl)-7-methyl-9-(4-(1-methyl-1H-1,2,3-triazol-4-yl)benzyl)-7,9-dihydro-8H-purin-8-one], the half-inhibitory concentration (IC50) is under 50 nM.

`CC(C)c1ccccc1-c1ncc2[nH]c(=O)n(Cc3ccc(-c4nc(N5CCOCC5)n(C)n4)cc3)c2n1` [Compound I-292, 2-(2-isopropylphenyl)-9-(4-(1-methyl-5-morpholino-1H-1,2,4-triazol-3-yl)benzyl)-7,9-dihydro-8H-purin-8-one] registered an IC50 of 50 to 200 nM.

Regarding `CC(C)c1ccccc1-c1ncc2c(n1)n(Cc1ccc(-c3cccc(OCCN(C)C)c3)cc1)c(=O)n2C` [Compound I-260, 9-((3′-(2-(dimethylamino)ethoxy)-[1,1′-biphenyl]-4-yl)methyl)-2-(2-isopropylphenyl)-7-methyl-7,9-dihydro-8H-purin-8-one], the IC50 lay within 50 to 200 nM.

As to `Cn1cc(C(F)(F)F)nc1-c1ccc(Cn2c(=O)[nH]c3cnc(-c4cccnc4OC4CC4)nc32)cc1` [Compound I-420, 2-(2-cyclopropoxypyridin-3-yl)-9-(4-(1-methyl-4-(trifluoromethyl)-1H-imidazol-2-yl)benzyl)-7,9-dihydro-8H-purin-8-one], the concentration for half-maximal inhibition (IC50) was under 50 nM.

`CC(C)c1ccccc1-c1ncc2[nH]c(=O)n(Cc3ccc(-n4ccc(N5CCNCC5)n4)cc3)c2n1` [Compound I-432, 2-(2-isopropylphenyl)-9-(4-(3-(piperazin-1-yl)-1H-pyrazol-1-yl)benzyl)-7,9-dihydro-8H-purin-8-one] registered a 50% inhibitory concentration (IC50) of 200 to 2000 nM.

With `CC(C)c1ccccc1-c1ncc2[nH]c(=O)n(Cc3ccc(-c4cn(CCN(C)C)nn4)cc3)c2n1` [Compound I-521, 9-(4-(1-(2-(Dimethylamino)ethyl)-1H-1,2,3-triazol-4-yl)benzyl)-2-(2-isopropylphenyl)-7,9-dihydro-8H-purin-8-one], the IC50 lay within 200 to 2000 nM.

Turning to `CC(C)c1ccccc1-c1ncc2[nH]c(=O)n([C@@H](C)c3ccccc3)c2n1` [Compound I-156, (S)-2-(2-isopropylphenyl)-9-(1-phenylethyl)-7,9-dihydro-8H-purin-8-one], the 50% inhibitory concentration (IC50) was over 2000 nM.
